Experimental data from patent US20050054536A1, “Beta-amino-alpha-cyanoacrylates and their use as herbicides” (priority 2001, published 2005).

Experiments:
Amaranthus retroflexus = experiment: greenhouse experiment, pre-emergence treatment, herbicidal activity; type: in vivo; settings: application rate 1.0 kg/ha
Description: (§1) The seeds of the test plants were sown separately for each species. For the pre-emergence treatment, directly after sowing the active compounds, which had been suspended or emulsified in water, were applied by means of finely distributing nozzles. The containers were irrigated gently to promote germination and growth and subsequently covered with transparent plastic hoods until the plant had rooted. This cover caused uniform germination of the test plants, unless this was adversely affected by the active compounds. The application rate for a pre-emergence treatment was 0.5 or 1.0 kg of a.s. (active substance)/ha. Depending on the species, the plants were kept at from 10 to 25° C. or from 20 to 35° C. The test period extended over 2 to 4 weeks. During this time, the plants were tended, and their response to the individual treatments was evaluated. Evaluation was carried out using a scale from 0 to 100. 100 means no emergence of the plants, or complete destruction of at least the above-ground parts, and 0 means no damage, or normal course of growth. The plants used in the greenhouse experiments were of the following species: [table]

Setaria faberii [1] = experiment: as above; type: in vivo; settings: application rate 1.0 kg/ha
Description: as §1

Pharbitis purpurea = experiment: greenhouse experiment, post-emergence treatment, herbicidal activity; type: in vivo; settings: application rate 1.0 kg/ha
Description: (§2) The seeds of the test plants were sown separately for each species. For the post-emergence treatment, the test plants were first grown to a height of from 3 to 15 cm, depending on the plant habit, and only then treated with the active compounds which had been suspended or emulsified in water. The test plants were for this purpose either sown directly and grown in the same containers, or they were first grown separately as seedlings and transplanted into the test containers a few days prior to treatment. The application rate for the post-emergence treatment was 0.5 or 1.0 kg of a.s. (active substance)/ha. Depending on the species, the plants were kept at from 10 to 25° C. or from 20 to 35° C. The test period extended over 2 to 4 weeks. During this time, the plants were tended, and their response to the individual treatments was evaluated. Evaluation was carried out using a scale from 0 to 100. 100 means no emergence of the plants, or complete destruction of at least the above-ground parts, and 0 means no damage, or normal course of growth. The plants used in the greenhouse experiments were of the following species: [table]

Setaria faberii [2] = experiment: as above; type: in vivo; settings: application rate 1.0 kg/ha
Description: as §2

Digitaria sanguinalis = experiment: greenhouse experiment, pre-emergence treatment, herbicidal activity; type: in vivo; settings: application rate 1.0 kg/ha
Description: as §1

Row | SMILES | melting point [°C] | effect on the harmful plant Setaria faberii, pre-emergence method (Setaria faberii [1]) | post-emergence activity against the undesirable plant Pharbitis purpurea (Pharbitis purpurea) | further results
1 | CCOC(=O)/C(C#N)=C(\N)C(CC)CC [Example 2.1, Ethyl (2Z)-3-amino-2-cyano-4-ethyl-2-hexenoate] | 85 to 87 | very good | very good | effect on the harmful plant Amaranthus retroflexus, pre-emergence method (Amaranthus retroflexus): very good; post-emergence activity against the undesirable plant Setaria faberii (Setaria faberii [2]): very good
2 | CCCOC(=O)/C(C#N)=C(\N)C(CC)CC [Example 2.2, n-Propyl (2Z)-3-amino-2-cyano-4-ethyl-2-hexenoate] | 84 | very good | very good | effect on the harmful plant Digitaria sanguinalis, pre-emergence method (Digitaria sanguinalis): very good
3 | CCCOC(=O)/C(C#N)=C(\N)C(CC)CSC (stereo not shown) [Example 2.3, n-Propyl (2Z)-3-amino-2-cyano-4-[(methylsulfanyl)methyl]-2-hexenoate] | 78 |  |  | 
4 | CCC(CC)/C(N)=C(\C#N)C(=O)OC [Example 2.5] | 65 |  |  | 
5 | CCOC(=O)/C(C#N)=C(\N)C(C)CC (stereo not shown) [Example 2.6] | 102 to 103 |  |  | 
6 | CCC(CC)/C(N)=C(\C#N)C(=O)OCCOC [Example 2.22] | 70 | very good | very good | 
7 | CCOCCOC(=O)/C(C#N)=C(\N)C(CC)CC [Example 2.23] | 70 |  |  | 

Continued, in another order:

Row | melting point [°C] | SMILES | effect on the harmful plant Setaria faberii, pre-emergence method (Setaria faberii [1]) | post-emergence activity against the undesirable plant Pharbitis purpurea (Pharbitis purpurea) | further results
8 | 65 to 67 | CCOC(=O)/C(C#N)=C(\N)C(C)(C)CC [Example 2.8] |  |  | 
9 | 56 | CCOC(=O)/C(C#N)=C(\N)C(C)(C)Cl [Example 2.9] |  |  | 
10 | 46 | CCOC(=O)/C(C#N)=C(\N)C(C)(C)Br [Example 2.10] |  |  | 
